In US10562912B2 (C&C Research Laboratories, priority 2013, dated 2020):
One block for each compound: values may come before it.

Tests used:
Assay type in all cases: cell-based
DU-145 = assay: Cell growth inhibition assay, prostate cancer cell line DU-145; conditions: Homo sapiens, DU-145 prostate cancer cell line
Summary of the method: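 Cells were seeded at 3,000/well (HCT116, DU-145) or 5,000/well (SW626 and the others) and exposed to serial compound dilutions for 72 to 96 h at 37 °C under 5% CO2. Viability was read as CellTiter-Glo luminescence against 0.1% DMSO and cell-free wells.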

LNCaP = assay: Cell growth inhibition assay, prostate cancer cell line LNCaP (medium with 10 ng/mL IL-6); conditions: Homo sapiens, medium supplemented with 10 ng/mL of IL-6, 10,000 cells/well
HEL92.1.7 = assay: Cell growth inhibition assay, blood cancer cell line HEL92.1.7; conditions: Homo sapiens, HEL 92.1.7, HEL92.1.7 blood cancer cell line
Description: The inhibitory effects of the compounds of the present invention against the growth of cancer cells were evaluated as shown below. The cancer cell lines including stomach cancer cell line (AGS), breast cancer cell lines (MDA-MB-231, MDA-MB-468, and BT-549), prostate cancer cell lines (LNCaP and DU-145), colon cancer cell line (HCT116), ovarian cancer cell line (SW626), liver cancer cell line (Hep3B), kidney cancer cell line (ACHN), lung cancer cell line (NCI-H23) and blood cancer cell lines (HEL92.1.7 and U266) were cultured under the protocol provided by each supplier. A medium supplemented with 10 ng/mL of IL-6 was used for LNCaP, a prostate cancer cell line, when treated with a drug. Each type of cells to be used in experiments were sub-cultured in a 96-well plate by counting the exact number of cells using Tali™ Image-based Cytometer (Life Technologies). In a 96-well plate, AGS, HCT116, and DU-145 were employed with 3,000 cells/well; NCI-H23, SW626, Hep3B, ACHN, BT-549, MDA-MB-231, HEL92.1.7, and U266 were employed with 5,000 cells/well; and LNCaP and MDA-MB-468 were employed with 10,000 cells/well. The cells were treated with the compounds listed in Examples which were diluted in various concentrations. Upon completion of the compounds treatment, AGS, HCT116, SW626, DU145, NCI-H23, Hep3B, ACHN, BT-549, LNCaP, HEL92.1.7, and U266 cells were cultured at 37° C. under 5% CO2 for from 72 to 96 hours, and MDA-MB-231 and MDA-MB-468 cells were cultured at 37° C. in air for from 72 to 96 hours. Subsequently, the cells were observed under microscope and drug precipitation and particular findings were investigated and recorded. And then, the 96-well plate was placed at room temperature for 30 minutes, added with 20 μL/well of CellTiter-Glo solution (Cat No. G7573, Promega) and shaken for 10 minutes, followed by being subjected to the measurement using PHERAstar™ microplate reader (BMG LABTECH) according to the supplier's general luminometer protocol. Wells where only culture liquid added without cell plating were used as a negative control, whereas wells where culture liquid containing 0.1% DMSO instead of the compounds listed in Examples were used as a positive control.

STAT3 = target: T1, STAT3 (Homo sapiens, UniProt P40763); assay: STAT3 reporter gene assay (luciferase), LNCaP stable cell line (pSTAT3-TA-luc), IL-6 stimulation
T1 construct: plasmid pSTAT3-TA-luc), which contains a stably operating STAT3 promoter; endogenous in cells
T1 sequence (P40763 whole entry): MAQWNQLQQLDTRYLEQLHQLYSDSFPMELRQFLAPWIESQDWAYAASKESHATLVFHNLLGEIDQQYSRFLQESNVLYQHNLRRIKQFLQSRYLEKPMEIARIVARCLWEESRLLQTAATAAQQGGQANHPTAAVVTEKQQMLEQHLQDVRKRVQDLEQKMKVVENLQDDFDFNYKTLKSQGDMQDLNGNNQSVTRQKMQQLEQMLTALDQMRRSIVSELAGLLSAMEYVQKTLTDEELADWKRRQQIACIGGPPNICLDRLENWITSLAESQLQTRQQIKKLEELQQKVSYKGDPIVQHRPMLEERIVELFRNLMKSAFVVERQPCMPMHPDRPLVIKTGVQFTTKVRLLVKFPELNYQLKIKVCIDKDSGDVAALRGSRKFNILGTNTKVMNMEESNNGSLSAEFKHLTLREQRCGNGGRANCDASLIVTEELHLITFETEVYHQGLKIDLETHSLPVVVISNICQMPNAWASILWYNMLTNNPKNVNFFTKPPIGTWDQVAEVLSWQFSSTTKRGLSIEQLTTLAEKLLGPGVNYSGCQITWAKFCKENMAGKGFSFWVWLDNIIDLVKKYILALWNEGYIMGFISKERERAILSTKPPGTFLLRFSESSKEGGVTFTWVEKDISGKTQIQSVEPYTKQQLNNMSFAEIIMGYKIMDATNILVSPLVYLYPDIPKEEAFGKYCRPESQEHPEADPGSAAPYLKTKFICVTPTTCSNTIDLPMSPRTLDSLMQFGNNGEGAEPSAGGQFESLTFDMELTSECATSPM
Summary of the method: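 LNCaP cells stably carrying pSTAT3-TA-luc, in RPMI1640 with 3% DCC-FBS, were treated with compound and then stimulated with 10 ng/mL IL-6 for 24–48 h at 37 °C. Luciferase activity was measured in lysates. A parallel plate measured viability by CellTiter-Glo, with stimulated 0.1% DMSO wells as the positive control.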

Structure (SMILES): CC(C)(c1cc[nH]c1)c1cc(Cl)cc(NC(=O)c2cc3cc(NS(C)(=O)=O)ccc3s2)c1 [Example 167, N-(3-(2-(1H-pyrrol-3-yl)propan-2-yl)-5-chlorophenyl)-5-(methylsulfonamido)benzo[b]thiophene-2-carboxamide]
IC50 (DU-145): > 1.1 µM
IC50 (LNCaP): 2.3 µM
IC50 (HEL92.1.7): > 1.1 µM
IC50 (STAT3): 2.6 µM

Structure (SMILES): CC(C)Oc1cc(N2CCN(C)CC2)cc(C(C)(C)c2cc(Cl)cc(NC(=O)c3cc4cc(NS(C)(=O)=O)ccc4s3)c2)c1 [Example 147, N-(3-chloro-5-(2-(3-isopropoxy-5-(4-methylpiperazin-1-yl)phenyl)propan-2-yl)phenyl)-5-(methylsulfonamido)benzo[b]thiophene-2-carboxamide]
IC50 (DU-145): 0.47 µM
IC50 (LNCaP): 0.8 µM
IC50 (HEL92.1.7): 1.04 µM
IC50 (STAT3): 0.67 µM

Structure (SMILES): CC(C)(c1ccc(Br)cc1)c1cc(Cl)cc(NC(=O)c2cc3cc(NS(C)(=O)=O)ccc3s2)c1 [Example 152, N-(3-(2-(4-bromophenyl)propan-2-yl)-5-chlorophenyl)-5-(methylsulfonamido)benzo[b]thiophene-2-carboxamide]
IC50 (DU-145): 0.047 µM
IC50 (LNCaP): 0.059 µM
IC50 (HEL92.1.7): 0.21 µM
IC50 (STAT3): 0.12 µM

Structure (SMILES): CC(C)Oc1cc(OC(F)(F)F)cc(C(C)(C)c2cc(Cl)cc(NC(=O)c3cc4cc(NS(=O)(=O)N5CCOCC5)ccc4s3)c2)c1 [Example 103, N-(3-chloro-5-(2-(3-isopropoxy-5-(trifluoromethoxy)phenyl)propan-2-yl)phenyl)-5-(morpholine-4-sulfonamido)benzo[b]thiophene-2-carboxamide]
IC50 (DU-145): 0.045 µM
IC50 (LNCaP): 0.035 µM
IC50 (HEL92.1.7): 0.16 µM
IC50 (STAT3): 0.11 µM

Structure (SMILES): COc1ccc(C(C)(C)c2cc(Cl)cc(NC(=O)c3cc4cc(NS(C)(=O)=O)ccc4s3)c2)c(OC)c1 [Example 154, N-(3-chloro-5-(2-(2,4-dimethoxyphenyl)propan-2-yl)phenyl)-5-(methylsulfonamido)benzo[b]thiophene-2-carboxamide]
IC50 (DU-145): 0.17 µM
IC50 (LNCaP): 0.11 µM
IC50 (HEL92.1.7): 0.34 µM
IC50 (STAT3): 0.14 µM

Structure (SMILES): COc1cc(F)cc(C(C)(C)c2cc(Cl)cc(NC(=O)c3cc4cc(NS(C)(=O)=O)ccc4s3)c2)c1 [Example 67, N-(3-chloro-5-(2-(3-fluoro-5-methoxyphenyl)propan-2-yl)phenyl)-5-(methylsulfonamido)benzo[b]thiophene-2-carboxamide]
IC50 (DU-145): 0.042 µM
IC50 (LNCaP): 0.037 µM
IC50 (HEL92.1.7): 0.11 µM
IC50 (STAT3): 0.067 µM

Structure (SMILES): CC(C)(c1cc(F)cc(NC(=O)c2cc3cc(NS(C)(=O)=O)ncc3s2)c1)c1cc(OC(F)(F)F)cc(OC(F)(F)C(F)F)c1 [Example 86, N-(3-fluoro-5-(2-(3-(1,1,2,2-tetrafluoroethoxy)-5-(trifluoromethoxy)phenyl)propan-2-yl)phenyl)-5-(methylsulfonamido)thieno[2,3-c]pyridine-2-carboxamide]
IC50 (DU-145): 0.047 µM
IC50 (LNCaP): 0.075 µM
IC50 (HEL92.1.7): 0.23 µM
IC50 (STAT3): 0.072 µM

Structure (SMILES): CC(C)Oc1cc(-c2ccnn2C)cc(C(C)(C)c2cc(Cl)cc(NC(=O)c3cc4cc(NS(C)(=O)=O)ccc4s3)c2)c1 [Example 142, N-(3-chloro-5-(2-(3-isopropoxy-5-(1-methyl-1H-pyrazol-5-yl)phenyl)propan-2-yl)phenyl)-5-(methylsulfonamido)benzo[b]thiophene-2-carboxamide]
IC50 (DU-145): 0.09 µM
IC50 (LNCaP): 0.33 µM
IC50 (HEL92.1.7): 0.33 µM
IC50 (STAT3): 0.13 µM

Structure (SMILES): CC(C)(c1cc(Cl)cc(NC(=O)c2cc3cc(NS(C)(=O)=O)ccc3s2)c1)c1cc(OCCN2CCOCC2)cc(OC(F)(F)F)c1 [Example 90, N-(3-chloro-5-(2-(3-(2-morpholinoethoxy)-5-(trifluoromethoxy)phenyl)propan-2-yl)phenyl)-5-(methylsulfonamido)benzo[b]thiophene-2-carboxamide]
IC50 (DU-145): 0.048 µM
IC50 (LNCaP): 0.22 µM
IC50 (HEL92.1.7): 0.23 µM
IC50 (STAT3): 0.043 µM

Now those with a lower IC50 (DU-145), led by results:

IC50 (DU-145): 0.022 µM
IC50 (LNCaP): 0.084 µM
IC50 (HEL92.1.7): 0.12 µM
IC50 (STAT3): 0.02 µM
Structure (SMILES): CC(C)Oc1cc(OC(F)(F)F)cc(C(C)(C)c2cc(Cl)cc(NC(=O)c3cc4cc(NS(=O)(=O)CC5CCOC5)ccc4s3)c2)c1 (centres unmarked) [Example 196, N-(3-chloro-5-(2-(3-isopropoxy-5-(trifluoromethoxy)phenyl)propan-2-yl)phenyl)-5-(((tetrahydrofuran-3-yl)methyl)sulfonamido)benzo[b]thiophene-2-carboxamide]

IC50 (DU-145): 0.021 µM
IC50 (LNCaP): 0.073 µM
IC50 (HEL92.1.7): 0.09 µM
IC50 (STAT3): 0.039 µM
Structure (SMILES): Cn1cccc1C(C)(C)c1cc(Cl)cc(NC(=O)c2cc3cc(NS(C)(=O)=O)ccc3s2)c1 [Example 169, N-(3-chloro-5-(2-(1-methyl-1H-pyrrol-2-yl)propan-2-yl)phenyl)-5-(methylsulfonamido)benzo[b]thiophene-2-carboxamide]

IC50 (DU-145): 0.018 µM
IC50 (LNCaP): 0.054 µM
IC50 (HEL92.1.7): 0.26 µM
IC50 (STAT3): 0.02 µM
Structure (SMILES): Cn1cc(Cc2cc(OC(F)(F)C(F)F)cc(C(C)(C)c3cc(Cl)cc(NC(=O)c4cc5cc(NS(C)(=O)=O)ccc5s4)c3)c2)cn1 [Example 138, N-(3-chloro-5-(2-(3-((1-methyl-1H-pyrazol-4-yl)methyl)-5-(1,1,2,2-tetrafluoroethoxy)phenyl)propan-2-yl)phenyl)-5-(methylsulfonamido) benzo[b]thiophene-2-carboxamide]

IC50 (DU-145): 0.014 µM
IC50 (LNCaP): 0.05 µM
IC50 (HEL92.1.7): 0.066 µM
IC50 (STAT3): 0.007 µM
Structure (SMILES): CC(C)Oc1cc(OC(F)(F)F)cc(C(C)(C)c2cc(Cl)cc(NC(=O)c3cc4cc(N5CCCCS5(=O)=O)ccc4s3)c2)c1 [Example 211, N-(3-chloro-5-(2-(3-isopropoxy-5-(trifluoromethoxy)phenyl)propan-2-yl)phenyl)-5-(1,1-dioxido-1,2-thiazinan-2-yl)benzo[b]thiophene-2-carboxamide]

IC50 (DU-145): 0.009 µM
IC50 (LNCaP): 0.028 µM
IC50 (HEL92.1.7): 0.091 µM
IC50 (STAT3): 0.016 µM
Structure (SMILES): CC(C)(c1cc(Br)cc(NC(=O)c2cc3cc(NS(C)(=O)=O)ccc3s2)c1)c1cc(OC(F)(F)F)cc(OC(F)(F)C(F)F)c1 [Example 87, N-(3-bromo-5-(2-(3-(1,1,2,2-tetrafluoroethoxy)-5-(trifluoromethoxy)phenyl)propan-2-yl)phenyl)-5-(methylsulfonamido)benzo[b]thiophene-2-carboxamide]

IC50 (DU-145): 0.007 µM
IC50 (LNCaP): 0.025 µM
IC50 (HEL92.1.7): 0.076 µM
IC50 (STAT3): 0.016 µM
Structure (SMILES): CC(C)(c1cc(F)cc(NC(=O)c2cc3cc(NS(C)(=O)=O)ccc3s2)c1)c1cc(OC(F)(F)F)cc(OC(F)(F)C(F)F)c1 [Example 85, N-(3-fluoro-5-(2-(3-(1,1,2,2-tetrafluoroethoxy)-5-(trifluoromethoxy)phenyl)propan-2-yl)phenyl)-5-(methylsulfonamido)benzo[b]thiophene-2-carboxamide]

IC50 (DU-145): 0.007 µM
IC50 (LNCaP): 0.035 µM
IC50 (HEL92.1.7): 0.029 µM
IC50 (STAT3): 0.011 µM
Structure (SMILES): COCCS(=O)(=O)Nc1ccc2sc(C(=O)Nc3cc(Cl)cc(C(C)(C)c4cc(OC(C)C)cc(OC(F)(F)F)c4)c3)cc2c1 [Example 195, N-(3-chloro-5-(2-(3-isopropoxy-5-(trifluoromethoxy)phenyl)propan-2-yl)phenyl)-5-((2-methoxyethyl)sulfonamido)benzo[b]thiophene-2-carboxamide]

IC50 (DU-145): 0.004 µM
IC50 (LNCaP): 0.008 µM
IC50 (HEL92.1.7): 0.009 µM
IC50 (STAT3): 0.01 µM
Structure (SMILES): CN(c1cc2cc(C(=O)Nc3cc(Cl)cc(-c4ccc(F)cc4F)c3)sc2cc1F)S(C)(=O)=O [Example 329, N-(5-chloro-2′,4′-difluoro-[1,1′-biphenyl]-3-yl)-6-fluoro-5-(N-methylmethylsulfonamido)benzo[b]thiophene-2-carboxamide]
